# Assay results taken from patent US20230064809A1, “SUBSTITUTED AMINOQUINOLONES AS DGKALPHA INHIBITORS FOR IMMUNE ACTIVATION” (Bayer Aktiengesellschaft, priority 2019, published 2023).
# Assays:
# DGKα [1] = biological target: T1, DGKα (Homo sapiens, UniProt P23743); conditions: literature report; cited from earlier work
# Target sequence in this assay (P23743 whole entry, species assumed): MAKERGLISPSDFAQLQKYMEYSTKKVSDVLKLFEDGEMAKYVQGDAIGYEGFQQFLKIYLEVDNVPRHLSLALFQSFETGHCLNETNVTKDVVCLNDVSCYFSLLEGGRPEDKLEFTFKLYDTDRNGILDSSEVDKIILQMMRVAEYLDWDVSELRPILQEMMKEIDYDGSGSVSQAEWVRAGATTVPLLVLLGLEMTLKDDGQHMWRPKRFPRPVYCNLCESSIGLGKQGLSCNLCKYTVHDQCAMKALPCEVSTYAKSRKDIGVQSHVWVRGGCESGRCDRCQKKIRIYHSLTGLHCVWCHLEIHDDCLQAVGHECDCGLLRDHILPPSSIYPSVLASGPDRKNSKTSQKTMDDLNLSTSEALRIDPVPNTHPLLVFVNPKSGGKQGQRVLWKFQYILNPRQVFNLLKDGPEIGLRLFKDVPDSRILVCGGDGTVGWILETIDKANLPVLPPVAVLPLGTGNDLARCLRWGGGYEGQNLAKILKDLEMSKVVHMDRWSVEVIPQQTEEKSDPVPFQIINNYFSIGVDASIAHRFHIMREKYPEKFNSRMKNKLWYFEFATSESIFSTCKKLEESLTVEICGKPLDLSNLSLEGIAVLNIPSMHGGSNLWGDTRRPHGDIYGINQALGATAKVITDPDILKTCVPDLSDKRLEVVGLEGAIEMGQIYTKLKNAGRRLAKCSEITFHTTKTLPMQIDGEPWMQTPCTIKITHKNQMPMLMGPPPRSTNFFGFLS
# DGKα [2] = biological target: T1, DGKα; assay: Human DGKα kinase activity inhibition assay (ADP-Glo); type: biochemical; design: made in house; host or cells: Sf9 insect cells, baculovirus; conditions: in vitro, C-terminally FLAG-tagged recombinant full-length human DGKα, 1,2-dioleoyl-sn-glycerol substrate, ADP-Glo readout
# Procedure: Human DGKα Kinase Activity Inhibition Assay. Human DGKα inhibitory activity of compounds of the present invention was quantified employing the human DGKα kinase activity assay as described in the following paragraphs. In essence, the enzyme activity was measured by quantification of the adenosine-di-phosphate (ADP) generated as a co-product of the enzyme reaction via the “ADP-Glo™ Kinase Assay” kit from the company Promega. This detection system works as follows: In a first step the ATP not consumed in the kinase reaction is quantitatively converted to […] (“ADP-Glo-reagent”), then the adenylate cyclase is stopped and the ADP generated in the kinase reaction converted to ATP, which subsequently generates in a luciferase-based reaction a glow-luminescence signal (“Kinase Detection Reagent”). C-terminally FLAG-tagged, recombinant full-length human DGKα (expressed in baculovirus infected insect cells, purified using anti-Flag pulldown and size exclusion chromatography as described below, DGKa_hu_1) was used as enzyme. As substrate for the kinase 1,2-dioleoyl-sn-glycerol, reconstituted in octyl-β-D-glucopyranoside micelles, was used. For the preparation of the micelles, 1 volume of a 16.1 mM solution of 1,2-dioleoyl-sn-glycerol (Avanti, Cat. #08001-25G) in chloroform was slowly evaporated using a nitrogen stream. Subsequently, 22.55 volumes of a 510 mM solution of octyl-β-D-glucopyranoside (Sigma-Aldrich, Cat. #08001-10G) in 50 mM MOPS buffer (pH 7.4) were added, and the mixture was sonicated in an ultrasonic bath for 20 s. Then 35 volumes of 50 mM MOPS buffer (pH 7.4) were added to yield a solution of 0.28 mM 1,2 dioleoyl-sn-glycerol and 200 mM octyl-β-D-glucopyranoside, which was aliquoted, flash-frozen in liquid nitrogen, and stored at −20° C. until use. For each experiment, a fresh aliquot was quickly thawed and diluted 24-fold with aqueous assay buffer (described below) containing 95.7 μM adenosine triphosphate (Promega) to yield a 1.67-fold concentrated substrate solution. For the assay 50 nl of a 100-fold concentrated solution of the test compound in dimethyl sulfoxide (DMSO, Sigma) was pipetted into either a white 1536-well or a white low-volume 384-well microtiter plate (both Greiner Bio-One, Frickenhausen, Germany). […] The concentration of DGK a was adjusted depending of the activity of the enzyme lot and was chosen appropriate to have the assay in the linear range, a typical concentration is about 0.1 nM. The reaction was stopped by the addition of 2.5 μl of “ADP-Glo-reagent” (1 to 1.5 diluted with water) and the resulting mixture was incubated at 22° C. for 1 h to convert the ATP no t consumed in the kinase reaction completely to […]. […] The amount of emitted light was taken as a measure for the amount of ADP generated and thereby for the activity of the DGKα.
# Target sequence in this assay (P23743 with tags, fused parts or gaps): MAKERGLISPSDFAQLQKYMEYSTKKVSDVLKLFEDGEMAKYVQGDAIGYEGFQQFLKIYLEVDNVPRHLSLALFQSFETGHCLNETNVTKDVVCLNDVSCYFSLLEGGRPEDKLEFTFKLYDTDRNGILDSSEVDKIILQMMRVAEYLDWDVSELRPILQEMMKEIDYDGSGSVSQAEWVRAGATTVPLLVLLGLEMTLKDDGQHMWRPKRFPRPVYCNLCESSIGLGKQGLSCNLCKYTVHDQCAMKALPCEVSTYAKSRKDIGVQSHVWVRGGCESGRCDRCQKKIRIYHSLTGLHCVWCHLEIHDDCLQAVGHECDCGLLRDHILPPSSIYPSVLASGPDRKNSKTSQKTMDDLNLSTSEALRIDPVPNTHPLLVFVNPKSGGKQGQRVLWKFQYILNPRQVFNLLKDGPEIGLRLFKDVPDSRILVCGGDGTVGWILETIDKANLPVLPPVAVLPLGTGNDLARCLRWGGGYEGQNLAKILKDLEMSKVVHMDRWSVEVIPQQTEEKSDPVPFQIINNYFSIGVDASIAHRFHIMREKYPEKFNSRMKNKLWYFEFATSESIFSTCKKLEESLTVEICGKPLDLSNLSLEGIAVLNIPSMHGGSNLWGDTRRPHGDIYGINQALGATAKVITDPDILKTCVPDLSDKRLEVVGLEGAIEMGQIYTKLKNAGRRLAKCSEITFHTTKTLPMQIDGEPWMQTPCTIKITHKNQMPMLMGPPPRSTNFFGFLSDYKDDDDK
Structure (SMILES),IC50 (DGKα [2]),inhibitory activity on DGKα (DGKα [1])
Cc1ccc2c(C(=O)CN3CCN(C(=O)c4ccco4)CC3)c(C)[nH]c2c1 [AMB639752],–,micromolar
O=C1/C(=C\C=C\c2ccco2)SC(=S)N1NS(=O)(=O)c1ccccc1 [CU-3],–,sub-micromolar
"Cn1c(=O)c(C#N)c(N2CCC3(CN(c4ccc(OC(F)(F)F)cc4)C3)C2)c2ccc(Br)cc21 [Example 29, 7-bromo-1-methyl-2-oxo-4-{2-[4-(trifluoromethoxy)phenyl]-2,6-diazaspiro[3.4]octan-6-yl}-1,2-dihydroquinoline-3-carbonitrile]",0.046 µM,–
"Cn1c(=O)c(C#N)c(N2CCC3(CN(c4ccc(Cl)cc4)C3)C2)c2ccc(Br)cc21 [Example 30, 7-bromo-4-[2-(4-chlorophenyl)-2,6-diazaspiro[3.4]octan-6-yl]-1-methyl-2-oxo-1,2-dihydroquinoline-3-carbonitrile]",0.075 µM,–
"CN1CCN(c2ccc3c(N4CCC5(CCN(c6cccc(OC(F)(F)F)c6)C5)CC4)c(C#N)c(=O)n(C)c3c2)CC1 [Example 31, 1-methyl-7-(4-methylpiperazin-1-yl)-2-oxo-4-{2-[3-(trifluoromethoxy)phenyl]-2,8-diazaspiro[4.5]decan-8-yl}-1,2-dihydroquinoline-3-carbonitrile]",0.645 µM,–
"CN1CCN(c2ccc3c(N4CCC5(CCN(c6cccc(Cl)c6)C5)CC4)c(C#N)c(=O)n(C)c3c2)CC1 [Example 33, 4-[2-(3-chlorophenyl)-2,8-diazaspiro[4.5]decan-8-yl]-1-methyl-7-(4-methylpiperazin-1-yl)-2-oxo-1,2-dihydroquinoline-3-carbonitrile]",1.17 µM,–

# The next lines start with results.
IC50 (DGKα [2]),Structure (SMILES),inhibitory activity on DGKα (DGKα [1])
0.038 µM,"COCCN(C)c1ccc2c(N3CCC4(CCN(c5cccc(OC(F)(F)F)c5)C4)CC3)c(C#N)c(=O)n(C)c2c1 [Example 32, 7-[(2-methoxyethyl)(methyl)amino]-1-methyl-2-oxo-4-{2-[3-(trifluoromethoxy)phenyl]-2,8-diazaspiro[4.5]decan-8-yl}-1,2-dihydroquinoline-3-carbonitrile]",–
0.019 µM,"COCCN(C)c1ccc2c(N3CCC4(CCN(c5cccc(Cl)c5)C4)CC3)c(C#N)c(=O)n(C)c2c1 [Example 34, 4-[2-(3-chlorophenyl)-2,8-diazaspiro[4.5]decan-8-yl]-7-[(2-methoxyethyl)(methyl)amino]-1-methyl-2-oxo-1,2-dihydroquinoline-3-carbonitrile]",–
0.068 µM,"COCCN(C)c1ccc2c(N3CCC4(CCN(c5cccc(OC(F)(F)F)c5)C4)CC3)c(C(N)=O)c(=O)n(C)c2c1 [Example 35, 7-[(2-methoxyethyl)(methyl)amino]-1-methyl-2-oxo-4-{2-[3-(trifluoromethoxy)phenyl]-2,8-diazaspiro[4.5]decan-8-yl}-1,2-dihydroquinoline-3-carboxamide]",–
0.049 µM,"COCCN(C)c1ccc2c(N3CCC4(CCN(c5cccc(Cl)c5)C4)CC3)c(C(N)=O)c(=O)n(C)c2c1 [Example 36, 4-[2-(3-chlorophenyl)-2,8-diazaspiro[4.5]decan-8-yl]-7-[(2-methoxyethyl)(methyl)amino]-1-methyl-2-oxo-1,2-dihydroquinoline-3-carboxamide]",–
